# Test results reported in US20090005363A1, “Organic Compounds” (priority 2005, published 2009).
# Molecular target: mGluR5 (Homo sapiens, UniProt P41594)
# Test: inhibition of the glutamate induced elevation of intracellular Ca2+ concentration
# Conditions: read-out: mGluR5 Activity inh. at 10 μM [%]
# From the text: This can be determined in vitro for example at recombinant human metabotropic glutamate receptors, especially PLC-coupled subtypes thereof such as mGluR5, using different procedures like, for example, measurement of the inhibition of the agonist induced elevation of intracellular Ca^2+ concentration in accordance with L. P. Daggett et al., Neuropharm.
# mGluR5, sequence (P41594 21-1180 isoform P41594-2 limits assumed): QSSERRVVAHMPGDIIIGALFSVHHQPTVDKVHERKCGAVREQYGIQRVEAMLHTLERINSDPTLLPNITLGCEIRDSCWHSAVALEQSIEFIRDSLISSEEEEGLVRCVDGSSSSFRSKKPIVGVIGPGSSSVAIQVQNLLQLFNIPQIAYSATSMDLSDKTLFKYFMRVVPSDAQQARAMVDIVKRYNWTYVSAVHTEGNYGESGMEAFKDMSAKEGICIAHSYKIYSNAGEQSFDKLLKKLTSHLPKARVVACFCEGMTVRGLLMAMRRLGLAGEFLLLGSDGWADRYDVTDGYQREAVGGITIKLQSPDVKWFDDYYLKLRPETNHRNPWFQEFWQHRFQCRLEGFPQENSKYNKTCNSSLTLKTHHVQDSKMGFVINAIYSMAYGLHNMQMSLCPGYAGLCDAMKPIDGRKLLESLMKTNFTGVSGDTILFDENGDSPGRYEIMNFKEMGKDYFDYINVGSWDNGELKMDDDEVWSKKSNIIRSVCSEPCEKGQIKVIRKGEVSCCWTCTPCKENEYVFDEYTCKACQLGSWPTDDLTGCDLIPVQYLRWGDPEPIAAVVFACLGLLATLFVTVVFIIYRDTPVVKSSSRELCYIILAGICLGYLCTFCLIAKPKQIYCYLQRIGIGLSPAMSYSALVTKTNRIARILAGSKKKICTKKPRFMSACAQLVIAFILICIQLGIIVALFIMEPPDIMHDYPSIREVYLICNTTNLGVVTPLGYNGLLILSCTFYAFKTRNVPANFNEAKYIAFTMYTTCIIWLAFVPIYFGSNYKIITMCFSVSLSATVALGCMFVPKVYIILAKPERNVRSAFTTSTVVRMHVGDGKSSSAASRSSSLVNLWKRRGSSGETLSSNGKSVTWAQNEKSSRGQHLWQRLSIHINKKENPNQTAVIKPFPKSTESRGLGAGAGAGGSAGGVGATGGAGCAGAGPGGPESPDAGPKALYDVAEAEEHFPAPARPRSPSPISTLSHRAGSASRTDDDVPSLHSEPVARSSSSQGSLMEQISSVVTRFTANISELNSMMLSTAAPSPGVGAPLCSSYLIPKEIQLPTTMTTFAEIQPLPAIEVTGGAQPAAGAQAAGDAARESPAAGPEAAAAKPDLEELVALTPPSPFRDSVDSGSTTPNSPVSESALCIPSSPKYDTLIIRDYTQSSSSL
row,Compound,inhibition at 10 µM [%]
1,"O=C(c1ccc(Nc2ccc(Cl)cc2)nn1)N1CCc2ccccc2C1 [Compound 8.4, [6-(4-Chloro-phenylamino)-pyridazin-3-yl]-(3,4-dihydro-1H-isoquinolin-2-yl)-methanone]",89
2,"CC1CCN(C(=O)c2ccc(Nc3ccc(Cl)cc3)nn2)CC1 [Compound 8.5, [6-(4-Chloro-phenylamino)-pyridazin-3-yl]-(4-methyl-piperidin-1-yl)-methanone]",86
3,"Cc1ccc(Nc2ncc(C(=O)N3CCCCC3)cc2C)cn1 [Compound 9.1, [5-Methyl-6-(6-methyl-pyridin-3-ylamino)-pyridin-3-yl]-piperidin-1-yl-methanone]",97
4,"Cc1ccc(Nc2ncc(C(=O)N3CCCCC3)cc2F)cn1 [Compound 9.2, [5-Fluoro-6-(6-methyl-pyridin-3-ylamino)-pyridin-3-yl]-piperidin-1-yl-methanone]",99
